One test has as its target GSK3α(h) (Homo sapiens, UniProt P49840). The experiment in a line: GSK3α radiometric kinase assay (33P-ATP, phospho GS2 peptide). It counts as biochemical. The conditions noted are these: read-out: IC50 GSK3α (enzyme assay). Here is the method: GSK3α(h) is incubated with 8 mM MOPS pH 7,0, 0,2 mM EDTA, 20 μM
[…](p)EDEEE (phosphor GS2 peptide), 10 mM Mg-acetate and [gamma-33P-ATP](specific activity approx. 500 cpm/Pmol, concentration as required). The reaction is initiated by the addition of the MgATP. After incubation for 40 minutes at the room temperature, the Reaction is stopped by the addition of 3% phosphoric acid solution. 10 μL of reaction is then spotted onto a P30 filtermat and washed three times for 5 minutes in 50 mM phosphoric acid and once in methanol prior to drying and scintillation counting.

In a further test the target is GCN2 (Homo sapiens, UniProt Q9P2K8). Briefly: GCN2 enzyme assay (TR-FRET Lanthascreen, GFP-eIF2alpha phosphorylation). It counts as biochemical. As to conditions: 10 μM ATP, 80 nM GFP-eIF2a, 30 nM GCN2. In short, it runs like this: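 Phosphorylation of GFP-eIF2alpha (80 nM) by GCN2 run at room temperature with 10 μM ATP. After EDTA quench, product quantified by Lanthascreen TR-FRET (antibody–GFP complex, 340 nm excitation).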
In general terms: Time-resolved FRET reads energy transfer from a long-lived donor to a nearby acceptor.

Bounds are passed on as bounds.

Chain of GSK3α(h) (P49840 whole entry): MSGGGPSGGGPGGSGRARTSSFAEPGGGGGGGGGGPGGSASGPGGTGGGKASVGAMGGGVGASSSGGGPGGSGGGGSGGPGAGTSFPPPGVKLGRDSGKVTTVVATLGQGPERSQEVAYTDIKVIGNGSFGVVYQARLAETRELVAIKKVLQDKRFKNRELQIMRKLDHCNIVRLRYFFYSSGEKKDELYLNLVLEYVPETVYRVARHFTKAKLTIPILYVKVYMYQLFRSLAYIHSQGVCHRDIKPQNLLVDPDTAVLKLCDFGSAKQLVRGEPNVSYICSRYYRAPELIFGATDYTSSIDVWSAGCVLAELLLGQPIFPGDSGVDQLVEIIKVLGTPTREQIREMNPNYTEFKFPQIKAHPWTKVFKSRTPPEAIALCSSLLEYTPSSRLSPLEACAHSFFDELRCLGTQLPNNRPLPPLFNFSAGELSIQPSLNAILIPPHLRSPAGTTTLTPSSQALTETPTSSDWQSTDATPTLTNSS
Chain of GCN2 (Q9P2K8 whole entry, species assumed): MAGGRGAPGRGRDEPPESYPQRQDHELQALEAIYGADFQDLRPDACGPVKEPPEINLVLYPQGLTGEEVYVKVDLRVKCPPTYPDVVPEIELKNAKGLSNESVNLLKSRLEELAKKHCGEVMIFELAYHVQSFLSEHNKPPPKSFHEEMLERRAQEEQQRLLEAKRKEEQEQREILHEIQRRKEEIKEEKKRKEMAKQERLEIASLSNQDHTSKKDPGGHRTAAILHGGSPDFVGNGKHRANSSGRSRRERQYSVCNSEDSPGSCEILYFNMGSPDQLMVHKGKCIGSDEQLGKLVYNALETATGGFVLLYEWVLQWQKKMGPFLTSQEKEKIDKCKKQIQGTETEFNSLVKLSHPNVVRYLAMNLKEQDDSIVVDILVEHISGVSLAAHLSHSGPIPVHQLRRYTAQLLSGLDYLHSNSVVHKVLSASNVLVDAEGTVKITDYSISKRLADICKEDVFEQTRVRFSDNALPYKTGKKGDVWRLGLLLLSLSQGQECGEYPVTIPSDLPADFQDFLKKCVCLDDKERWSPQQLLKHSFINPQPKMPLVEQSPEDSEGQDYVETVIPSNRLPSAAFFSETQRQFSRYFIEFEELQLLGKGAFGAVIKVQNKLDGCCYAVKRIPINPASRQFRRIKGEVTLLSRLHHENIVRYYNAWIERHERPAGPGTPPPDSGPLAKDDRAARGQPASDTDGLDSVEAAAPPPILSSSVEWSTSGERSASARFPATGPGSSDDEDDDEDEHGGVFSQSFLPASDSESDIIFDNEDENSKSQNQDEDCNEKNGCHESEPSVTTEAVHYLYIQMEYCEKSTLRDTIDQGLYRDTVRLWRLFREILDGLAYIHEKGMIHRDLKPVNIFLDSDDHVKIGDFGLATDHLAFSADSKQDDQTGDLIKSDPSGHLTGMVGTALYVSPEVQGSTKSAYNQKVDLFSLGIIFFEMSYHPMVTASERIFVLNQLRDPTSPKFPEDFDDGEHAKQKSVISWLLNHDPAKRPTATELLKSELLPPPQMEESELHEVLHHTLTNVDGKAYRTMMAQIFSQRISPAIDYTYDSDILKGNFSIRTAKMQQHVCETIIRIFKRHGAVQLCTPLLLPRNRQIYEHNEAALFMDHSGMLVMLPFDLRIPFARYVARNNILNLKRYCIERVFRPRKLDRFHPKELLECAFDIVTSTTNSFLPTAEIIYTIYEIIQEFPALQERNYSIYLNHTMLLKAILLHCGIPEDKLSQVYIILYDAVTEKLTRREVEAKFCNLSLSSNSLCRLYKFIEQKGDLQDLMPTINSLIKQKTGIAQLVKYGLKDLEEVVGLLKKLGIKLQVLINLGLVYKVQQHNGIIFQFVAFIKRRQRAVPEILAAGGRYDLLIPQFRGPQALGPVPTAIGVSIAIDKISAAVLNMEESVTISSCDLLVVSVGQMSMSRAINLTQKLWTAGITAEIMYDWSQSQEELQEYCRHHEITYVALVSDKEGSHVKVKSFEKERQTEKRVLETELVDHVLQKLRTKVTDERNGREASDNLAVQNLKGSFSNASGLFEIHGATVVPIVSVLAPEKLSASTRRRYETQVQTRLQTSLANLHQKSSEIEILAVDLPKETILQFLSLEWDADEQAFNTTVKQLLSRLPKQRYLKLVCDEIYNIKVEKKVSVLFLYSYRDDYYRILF

Broadly, the IC50 is the concentration at which inhibition is half-maximal. Turning to `O[C@@H]1CC[C@@H](Nc2ncc3nnn(-c4ccc(N5CCCC5)cc4)c3n2)C1` (relative stereo) [A198, (trans)-3-[3-(4-pyrrolidin-1-yl-phenyl)-3H-[1,2,3]triazolo[4,5-d]pyrimidin-5-ylamino]-cyclopentanol], the IC50 at GSK3α(h) and against GCN2 was under 1000 nM throughout.
For `Cc1nc2ccc(-n3nnc4cnc(N[C@@H]5CC[C@@H](O)C5)nc43)cc2o1` (relative stereo) [A199], the IC50 on GSK3α(h) and against GCN2 was under 1000 nM each time.
Consider `O[C@@H]1CC[C@@H](Nc2ncc3nnn(-c4ccc5nsnc5c4)c3n2)C1` (relative stereo) [A200, (trans)-3-(3-benzo[1,2,5]thiadiazol-5-yl-3H-[1,2,3]triazolo[4,5-d]pyrimidin-5-ylamino)-cyclopentanol], for which the IC50 at GSK3α(h) and against GCN2 was under 1000 nM throughout.
With `COc1ccc(-n2nnc3cnc(N[C@H]4CC[C@@H](S(C)(=O)=O)C4)nc32)cc1` (relative stereo) [A264, ((cis)-3-methanesulfonyl-cyclopentyl)-[3-(4-methoxy-phenyl)-3H-[1,2,3]triazolo[4,5-d]pyrimidin-5-yl]-amine], the IC50 at GSK3α(h) and against GCN2 was under 1000 nM each time.
Take `O[C@@H]1CC[C@@H](Nc2ncc3nnn(-c4ccc(-c5cnn(CCc6nnn[nH]6)c5)cc4)c3n2)C1` (relative stereo) [A266, trans-3-[3-(4-{1-[2-(1H-Tetrazol-5-yl)-ethyl]-1H-pyrazol-4-yl}-phenyl)-3H-[1,2,3]triazolo[4,5-d]pyrimidin-5-ylamino]-cyclopentanol]: the IC50 on GSK3α(h) and on GCN2 was under 1000 nM in each case.
On to `COc1ccc(-n2nnc3cnc(N[C@H]4CC[C@H](CO)C4)nc32)cc1` [A111, {(1S,3S)-3-[3-(4-methoxy-phenyl)-3H-[1,2,3]triazolo[4,5-d]pyrimidin-5-ylamino]-cyclopentyl}-methanol], for which the half-inhibitory concentration (IC50) at GSK3α(h) and against GCN2 was under 1000 nM throughout.
As for `COc1ccc(-n2nnc3cnc(N[C@@H]4CCN(C(=O)CCN5CCN(C)CC5)C4)nc32)cc1` [A132, 1-{(R)-3-[3-(4-methoxy-phenyl)-3H-[1,2,3]triazolo[4,5-d]pyrimidin-5-ylamino]-pyrrolidin-1-yl}-3-(4-methyl-piperazin-1-yl)-propan-1-one], the IC50 at GSK3α(h) and against GCN2 was under 1000 nM each time.
For the molecule `NC(=O)[C@H]1CC[C@@H](Nc2ncc3nnn(-c4ccc(N5CCCC5)cc4)c3n2)C1` [A138, (1S,3R)-3-[3-(4-pyrrolidin-1-yl-phenyl)-3H-[1,2,3]triazolo[4,5-d]pyrimidin-5-ylamino]-cyclopentanecarboxylic acid amide], the IC50 on GSK3α(h) and on GCN2 was under 1000 nM each time.
For the molecule `COc1ccc(-n2nnc3cnc(NCCCC(N)=O)nc32)cc1` [A142, 4-[3-(4-methoxy-phenyl)-3H-[1,2,3]triazolo[4,5-d]pyrimidin-5-ylamino]-butyramide], the half-inhibitory concentration (IC50) at GSK3α(h) and at GCN2 was under 1000 nM in each case.
On to `COc1ccc(-n2nnc3cnc(N[C@H]4CC[C@H](C(N)=O)CC4)nc32)cc1` [A143, 4-[3-(4-methoxy-phenyl)-3H-[1,2,3]triazolo[4,5-d]pyrimidin-5-ylamino]-cyclohexanecarboxylic acid amide], for which the IC50 at GSK3α(h) and against GCN2 was under 1000 nM each time.
`NC(=O)[C@H]1CC[C@@H](Nc2ncc3nnn(-c4ccc(I)cc4)c3n2)C1` [A171, (1S,3R)-3-[3-(4-iodo-phenyl)-3H-[1,2,3]triazolo[4,5-d]pyrimidin-5-ylamino]-cyclopentanecarboxylic acid amide] displayed an IC50 against GCN2 of under 1000 nM.
Same read-out and setting: the value for `O=C(O)[C@H]1CC[C@@H](Nc2ncc3nnn(-c4ccc5ncccc5c4)c3n2)C1` [A188, (1S,3R)-3-(3-quinolin-6-yl-3H-[1,2,3]triazolo[4,5-d]pyrimidin-5-ylamino)-cyclopentanecarboxylic acid] was under 1000 nM.
In the case of `COc1ccc(-n2nnc3cnc(N[C@@H]4CCC[C@@H](O)C4)nc32)cc1` [A201, (1R,3R)-3-[3-(4-methoxy-phenyl)-3H-[1,2,3]triazolo[4,5-d]pyrimidin-5-ylamino]-cyclohexanol], the IC50 at GCN2 is under 1000 nM.
Still for that read-out and setting: the figure for `O[C@@H]1CC[C@@H](Nc2ncc3nnn(-c4ccc(-c5cnn(Cc6cccnc6)c5)cc4)c3n2)C1` [A231, (1R,3R)-3-{3-[4-(1-pyridin-3-ylmethyl-1H-pyrazol-4-yl)-phenyl]-3H-[1,2,3]triazolo[4,5-d]pyrimidin-5-ylamino}-cyclopentanol] is under 1000 nM.
The same measure, in the same setting: the value for `NC(=O)[C@@H]1CC[C@@H](Nc2ncc3nnn(-c4ccc(-c5cnn(CCO)c5)cn4)c3n2)C1` [A261, (1R,3R)-3-(3-{5-[1-(2-hydroxy-ethyl)-1H-pyrazol-4-yl]-pyridin-2-yl}-3H-[1,2,3]triazolo[4,5-d]pyrimidin-5-ylamino)-cyclopentanecarboxylic acid amide] was under 1000 nM; that for `COc1ccc(-n2nnc3cnc(N[C@@H]4CC[C@H](c5ncc(C)o5)C4)nc32)cc1` [A267, [3-(4-methoxy-phenyl)-3H-[1,2,3]triazolo[4,5-d]pyrimidin-5-yl]-[(1R,3S)-3-(5-methyl-oxazol-2-yl)-cyclopentyl]-amine] was under 1000 nM; that for `COc1ccc(-n2nnc3cnc(N[C@@H]4CCN(S(C)(=O)=O)C4)nc32)cc1` [A269a, ((R)-1-Methanesulfonyl-pyrrolidin-3-yl)-[3-(4-methoxy-phenyl)-3H-[1,2,3]triazolo[4,5-d]pyrimidin-5-yl]-amine] was under 1000 nM.
With `Cc1ccc2cc(-n3nnc4cnc(N[C@@H]5CCN(C(N)=O)C5)nc43)ccc2n1` [A284, (R)-3-[3-(2-methyl-quinolin-6-yl)-3H-[1,2,3]triazolo[4,5-d]pyrimidin-5-ylamino]-pyrrolidine-1-carboxylic acid amide], on GCN2, the IC50 was under 1000 nM.
`COc1ccc(-n2nnc3cnc(N[C@@H]4CC[C@@H](N5CCCC5=O)C4)nc32)cc1` [A291, 1-{(1R,3R)-3-[3-(4-methoxy-phenyl)-3H-[1,2,3]triazolo[4,5-d]pyrimidin-5-ylamino]-cyclopentyl}-pyrrolidin-2-one] yielded an IC50 against GCN2 of under 1000 nM.
The same measure, in the same setting: the figure for `Cn1cc(CNc2ncc3nnn(-c4ccc(Cl)c(F)c4)c3n2)cn1` [B4, [3-(4-chloro-3-fluoro-phenyl)-3H-[1,2,3]triazolo[4,5-d]pyrimidin-5-yl]-(1-methyl-1H-pyrazol-4-ylmethyl)-amine] is 1000 to 5000 nM; for `COCCOc1ccc(-n2nnc3cnc(NCc4cnn(C)c4)nc32)cc1` [B6, {3-[4-(2-methoxy-ethoxy)-phenyl]-3H-[1,2,3]triazolo[4,5-d]pyrimidin-5-yl}-(1-methyl-1H-pyrazol-4-ylmethyl)-amine] it is 1000 to 5000 nM.
Still for that read-out and setting: the figure for `CCOc1ccc(-n2nnc3cnc(NCCc4cnn(C)c4)nc32)cc1` [B7, [3-(4-ethoxy-phenyl)-3H-[1,2,3]triazolo[4,5-d]pyrimidin-5-yl]-[2-(1-methyl-1H-pyrazol-4-yl)-ethyl]-amine] is under 1000 nM; for `CCOc1ccc(-n2nnc3cnc(NCCc4cn[nH]c4)nc32)cc1` [B9, [3-(4-ethoxy-phenyl)-3H-[1,2,3]triazolo[4,5-d]pyrimidin-5-yl]-[2-(1H-pyrazol-4-yl)-ethyl]-amine] it is under 1000 nM.
On GCN2, `COc1ccc(-n2nnc3cnc(NCCc4ccccc4)nc32)cc1` [B10, [3-(4-methoxy-phenyl)-3H-[1,2,3]triazolo[4,5-d]pyrimidin-5-yl]-phenethyl-amine] had an IC50 of 1000 to 5000 nM.

The values are drawn from patent US9855268B2, “Triazolo[4,5-d]pyrimidine derivatives” (Merck Patent GmbH, priority 2013, dated 2018).
